Results taken from patent US20120232066A1, “COMPOSITIONS FOR REDUCING RISK OF ADVERSE EVENTS CAUSED BY DRUG-DRUG INTERACTIONS” (priority 2011, published 2012).

Assays:
[1] = Oral administration of Compound KC-17 co-dosed with Compound 109 to rats; oxycodone in plasma; format: in vivo, rat; conditions: KC-17 50 mg/kg
Description: At specified time points, blood samples were drawn, harvested for plasma via centrifugation at 5,400 rpm at 4° C. for 5 min, and 100 microliters (μl) plasma transferred from each sample into a fresh tube containing 2 μl of 50% formic acid. The tubes were vortexed for 5-10 seconds, immediately placed in dry ice, and then stored in a −80° C. freezer until analysis by HPLC/MS.

[2] = Oral administration of Compound AM-2 and Compound 109 to rats; amphetamine in plasma; format: in vivo, rat; conditions: suppressing Cmax and delaying Tmax
Excerpt: Table 10 and FIG. 10 provide amphetamine exposure results for rats administered with Compound AM-2 and with or without a co-dose of trypsin inhibitor.

[3] = Oral administration of Compound PC-1 and SBTI trypsin inhibitor to rats; hydromorphone in blood; conditions: for Cmax (ng/mL HM): hydromorphone in rat blood, PO PC-1 20 mg/kg
Description: At specified time points, blood samples were drawn, quenched into methanol, centrifuged at 14,000 rpm @ 4° C., and stored at −80° C. until analysis by high performance liquid chromatography/mass spectrometry (HPLC/MS).

N=C(N)c1ccc2cc(OC(=O)c3ccc(N=C(N)N)cc3)ccc2c1 [Compound 109, 6-carbamimidoylnaphthalen-2-yl 4-(diaminomethyleneamino)benzoate]
effect of Compound 109 on oxycodone release from Compound KC-17 [1]: attenuate release of oxycodone by prodrugs of the embodiments
effect of Compound 109 on amphetamine release from Compound AM-2 [2]: ability to attenuate

CC(=O)NC(CCCNC(=N)N)C(=O)NCCN(C)C(=O)Oc1ccc2c3c1OC1C(=O)CCC4C(C2)N(C)CCC314 (stereo not drawn) [Compound PC-1, Hydromorphone 3-(N-methyl-N-(2-N′-acetylarginylamino)) ethylcarbamate]
Cmax (ng/mL HM) ([3]; SBTI 0 mg/kg): 16.5 ± 5.3 ng/mL
Cmax (ng/mL HM) ([3]; SBTI 10 mg/kg): 8.9 ± 1.8 ng/mL
Cmax (ng/mL HM) ([3]; SBTI 100 mg/kg): 6.0 ± 4.0 ng/mL
Cmax (ng/mL HM) ([3]; SBTI 500 mg/kg): <5 ng/mL
Cmax (ng/mL HM) ([3]; SBTI 1000 mg/kg): <5 ng/mL

B1: SBTI: trypsin inhibitor from Glycine max (soybean) (Catalog No. 93620, ~10,000 units per mg, Sigma-Aldrich) (protein, UniProt P01070 25-205, looked up)
Trypsin inhibitor A: DFVLDNEGNPLENGGTYYILSDITAFGGIRAAPTGNERCPLTVVQSRNELDKGIGTIISSPYRIRFIAEGHPLSLKFDSFAVIMLCVGIPTEWSVVEDLPEGPAVKIGENKDAMDGWFRLERVSDDEFNNYKLVFCPQQAEDDKCGDIGISIDHDDGTRRLVVSKNKPLVVQFQKLDKESL
effect of SBTI on hydromorphone release from Compound PC-1 into blood ([3]; rats PO, PC-1 20 mg/kg and 10, 100, 500 or 1000 mg/kg SBTI): suppresses Cmax and delays Tmax
attenuation of Compound PC-1's ability to release hydromorphone ([3]; rats PO, PC-1 20 mg/kg, at higher SBTI concentrations): approximately 100%
